# Measurements reported in patent US20040044037A1, “Amidino-urea serotonin receptor ligands and compositions, their pharmaceutical uses, and methods for their snythesis” (priority 2003, published 2004).
# pKi: −log10 of the molar value. Like-named read-outs stand apart in the source and are kept apart here.
# Tests used:
# [1] = biological target: T1, human 5-HT7B (h5-HT7b) receptors (Homo sapiens, UniProt P34969); assay: Competition radioligand binding, h5-HT7b
# T1 construct: expressed in transfected cells
# In short: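 Membranes from HEK 293 cells stably expressing human 5-HT7b incubated with ~0.2 nM [3H]5-CT and varying compound 2 h at 37 °C in HEPES buffer pH 7.4 with pargyline. Nonspecific binding with 1 μM 5-HT; filtration, scintillation counting; IC50 by nonlinear regression converted to Ki via Cheng–Prusoff.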
# [2] = biological target: T2, human D2S dopamine (hD2S-DA) receptors (Homo sapiens, UniProt P14416); assay: Competition radioligand binding, hD2S dopamine
# T2 construct: purchased Receptor Biology, Inc. (Beltsville, Md.); host or cells: A9 L cells
# human 5HT2a receptors = biological target: T3, human 5HT2a receptors (Homo sapiens, UniProt P28223); assay: Competition radioligand binding, 5-HT2A
# T3 construct: expressed in transfected cells; host or cells: CHO K1 cells
# Procedure: (§1) Cells and Membrane Preparation: HEK 293 cells stably expressing human 5-HT7B (h5-HT7b) receptors were grown in Dulbecco's Modified Eagle's Medium (DMEM; Gibco) without sodium pyruvate and containing 4.5 g/L glucose, L-glutamine/penicillin-streptomycin (Gemini), 10% fetal bovine serum and 250 mg/l of the antibiotic, G418 (Geneticin) as previously described (Jasper, J. R., Kosaka, A., To, Z. P., Chang, D. J. and Eglen, R. M. (1997) Cloning, expression and pharmacology of a truncated splice variant of the human 5-ht7 receptor (h5-ht7b). Br. J. Pharmacol. 122(1):126-132.). Cell pellets were homogenized in approximately 50 mL of homogenization buffer (buffer A) containing: 50 mM Tris (pH 7.4), 2 mM EGTA, 0.32 M sucrose, 10 μM PMSF, 1 μg/mL leupeptin, 5 μg/mL Pepstatin A, and 5 μg/mL aprotinin using an UltraTurax homogenizer (Tekmar Company, Cincinnati, Ohio) at 80% maximum setting three times for 10 sec. Cell pellets were centrifuged at 4° C. at 1,500×g for 10 min in a Beckman GS-6R centrifuge. Pellets were resuspended in buffer A, homogenized and centrifuged as described above. Pooled supernatants were transferred to centrifuge bottles and centrifuged at 4° C. at 20,000×g for 30 min in a Beckman J2-HS centrifuge. Cell pellets were resuspended in buffer A and were centrifuged at 4° C. at 20,000×g for 30 min. Cell pellets were resuspended in buffer A and stored at −70° C. in aliquots of 2.5 mg/mL total membrane protein. Total membrane protein was assessed utilizing a BCA kit (Pierce; Rockford, Ill.). Membranes containing human 5-HT1a or 5HT2a receptors expressed in CHO K1 cells were prepared as described above.
# (§2) Radioligand Binding Assays: For 5-HT7 saturation binding experiments, HEK-293 cell membranes expressing h5-HT7 receptors (5-10 μg membrane protein/well) were incubated in duplicate with [^3H]5-CT (approximately 0.2 nM) in binding assay buffer containing: 50 mM HEPES (pH 7.4), 0.5 mM EDTA, 10 mM MgCl2, 10 μM pargyline to inhibit monoamine oxidase activity, and 0.1% sodium ascorbate, in a final volume of 200 μL in 96-well polypropylene plates for 2 hours at 37° C. Nonspecific binding was determined by incubating membranes with 1 μM 5-HT. All radioligand binding assays were stopped by rapid filtration onto 96-well GF/C filter plates (Packard) soaked in 0.1% polyethylenimine. Filters were washed three times with ice-cold phosphate-buffered saline (PBS) wash buffer containing 50 mM NaPO4 (pH 7.4), 0.9% NaCl, 2 mM MgCl2 and 0.02% NaN3. The filters were then counted using liquid scintillation in a Packard Topcount scintillation counter.
# (§3) Data Analysis: Radioligand binding experiments were analyzed with Prism™ (Graphpad, San Diego, Calif.), a computer graphics and statistics program. IC50 values and Hill slopes for compounds were generated by nonlinear regression using Prism™. Values for Ki calculated from IC50 values by the Cheng and Prussoff equation (Cheng, Y. and Prusoff, W. H., (1973), “Relationship between the inhibition constant (Ki) and the concentration of inhibitor which causes 50 per cent inhibition (I50) of an enzymatic reaction.” Biochemical Pharmacol. 22:3099-3108).
# human 5-HT1a receptors = biological target: T4, human 5-HT1a receptors (Homo sapiens, UniProt P08908); assay: Competition radioligand binding, h5-HT1a
# T4 construct: expressed in transfected cells; host or cells: CHO K1 cells
# T4 sequence (P08908 1-422): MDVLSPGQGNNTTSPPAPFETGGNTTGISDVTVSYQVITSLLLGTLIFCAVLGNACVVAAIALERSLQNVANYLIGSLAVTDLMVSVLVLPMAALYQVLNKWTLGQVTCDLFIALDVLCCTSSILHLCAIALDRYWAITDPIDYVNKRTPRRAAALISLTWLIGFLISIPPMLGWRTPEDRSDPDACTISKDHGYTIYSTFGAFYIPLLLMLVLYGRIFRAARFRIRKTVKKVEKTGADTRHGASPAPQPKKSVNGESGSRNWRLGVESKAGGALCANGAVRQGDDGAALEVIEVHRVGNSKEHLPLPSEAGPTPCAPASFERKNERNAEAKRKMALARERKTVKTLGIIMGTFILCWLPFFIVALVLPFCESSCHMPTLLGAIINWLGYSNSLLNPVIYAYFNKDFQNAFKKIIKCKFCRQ
# Procedure: as §1, §2, §3
# [3] = biological target: T5, human 5-HT6 (h5-HT6) receptors (Homo sapiens, UniProt P50406); assay: Competition radioligand binding, h5-HT6
# T5 construct: purchased Receptor Biology, Inc. (Beltsville, Md.); host or cells: HEK-293 cells
# [4] = [3H]5-CT, membranes of HEK 293 cells, read-out: Ki 5-HT7
# [5] = [3H]Spiperone, membranes of A9 L cells, read-out: Ki D2
# [6] = [3H]Ketanserin, membranes of CHO K1 cells, read-out: Ki 5-HT2A
# [7] = [3H]5-CT, membranes of CHO K1 cells, read-out: Ki 5-HT1A
# [8] = [3H]LSD, membranes of HEK-293 cells, read-out: Ki 5-HT6
# T1 sequence (P34969 1-432 limits assumed): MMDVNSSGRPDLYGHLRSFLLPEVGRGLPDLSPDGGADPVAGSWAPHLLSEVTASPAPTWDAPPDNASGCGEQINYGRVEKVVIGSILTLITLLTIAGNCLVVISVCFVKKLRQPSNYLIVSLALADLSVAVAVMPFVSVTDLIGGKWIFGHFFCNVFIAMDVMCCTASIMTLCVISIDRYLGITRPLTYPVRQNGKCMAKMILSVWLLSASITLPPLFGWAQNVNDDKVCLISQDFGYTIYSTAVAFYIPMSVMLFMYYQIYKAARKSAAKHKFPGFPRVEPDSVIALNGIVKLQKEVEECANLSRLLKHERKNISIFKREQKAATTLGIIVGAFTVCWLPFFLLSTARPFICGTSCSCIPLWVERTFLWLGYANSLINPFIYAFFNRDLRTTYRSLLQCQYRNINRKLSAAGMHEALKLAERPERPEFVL
# T5 sequence (P50406 whole entry): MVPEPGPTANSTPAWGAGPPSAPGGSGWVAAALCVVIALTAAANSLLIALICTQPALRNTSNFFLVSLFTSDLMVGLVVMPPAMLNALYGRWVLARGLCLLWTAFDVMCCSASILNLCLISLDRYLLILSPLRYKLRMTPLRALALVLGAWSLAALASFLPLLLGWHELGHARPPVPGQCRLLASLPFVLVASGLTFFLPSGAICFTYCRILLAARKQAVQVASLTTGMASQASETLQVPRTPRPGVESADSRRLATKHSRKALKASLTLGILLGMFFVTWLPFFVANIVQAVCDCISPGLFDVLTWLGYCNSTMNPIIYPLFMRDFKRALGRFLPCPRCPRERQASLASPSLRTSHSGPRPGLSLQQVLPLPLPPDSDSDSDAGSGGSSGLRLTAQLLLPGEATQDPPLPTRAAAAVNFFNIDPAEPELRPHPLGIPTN
# T2 sequence (P14416 1-414 isoform P14416-2): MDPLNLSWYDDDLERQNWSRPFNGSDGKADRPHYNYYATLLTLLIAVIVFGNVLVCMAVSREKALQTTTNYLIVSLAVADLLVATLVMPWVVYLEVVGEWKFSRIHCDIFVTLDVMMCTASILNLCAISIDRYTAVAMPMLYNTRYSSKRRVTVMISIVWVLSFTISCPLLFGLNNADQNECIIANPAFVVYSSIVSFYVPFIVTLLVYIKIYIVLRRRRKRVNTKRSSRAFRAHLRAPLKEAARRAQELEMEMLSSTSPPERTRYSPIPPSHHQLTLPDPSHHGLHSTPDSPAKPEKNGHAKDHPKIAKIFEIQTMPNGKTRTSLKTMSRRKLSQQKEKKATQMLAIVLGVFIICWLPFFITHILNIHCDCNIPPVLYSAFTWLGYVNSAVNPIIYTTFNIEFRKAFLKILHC
# T3 sequence (P28223 whole entry): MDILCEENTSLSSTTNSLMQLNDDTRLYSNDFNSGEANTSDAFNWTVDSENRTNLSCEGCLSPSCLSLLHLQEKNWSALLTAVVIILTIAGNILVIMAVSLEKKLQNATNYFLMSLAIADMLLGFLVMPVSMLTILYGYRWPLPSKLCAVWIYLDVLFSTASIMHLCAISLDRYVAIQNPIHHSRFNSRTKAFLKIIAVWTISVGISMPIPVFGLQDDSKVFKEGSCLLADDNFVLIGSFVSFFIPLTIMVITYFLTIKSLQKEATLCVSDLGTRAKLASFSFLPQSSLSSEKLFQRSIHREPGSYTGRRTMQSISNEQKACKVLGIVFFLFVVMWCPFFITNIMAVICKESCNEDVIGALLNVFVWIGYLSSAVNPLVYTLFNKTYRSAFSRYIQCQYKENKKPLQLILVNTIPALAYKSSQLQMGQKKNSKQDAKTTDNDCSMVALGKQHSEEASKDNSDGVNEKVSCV
SMILES,pKi [1],pKi [2],pKi (human 5HT2a receptors),pKi (human 5-HT1a receptors),pKi [3],"pKi [1, 4]","pKi [2, 5]",pKi (human 5HT2a receptors; [6]),pKi (human 5-HT1a receptors; [7]),"pKi [3, 8]"
"COc1cccc(OC)c1CNC(=N)NC(=O)N1CCC(Nc2ccccc2)CC1 [Example 81, N-[(4-Anilino-1-piperidinyl)carbonyl]-N′-(2,6-dimethoxybenzyl)guanidine]",7.18,5.72,6.74,5.53,5.33,–,–,–,–,–
"N=C(NCc1cccc2ccccc12)NC(=O)NCC1CCN(Cc2cccc(Cl)c2)CC1 [Example 73, 1-(3-Chlorobenzyl)-4-({[({imino[(1-naphthylmethyl)amino]methyl}amino)carbonyl]amino}methyl)piperidine]",–,–,–,–,–,7.68,6.08,8.06,6.41,6.12
"N=C(NCc1cccc2ccccc12)NC(=O)NCC1CCN(Cc2ccc(F)cc2)CC1 [Example 77, 1-(4-Fluorobenzyl)-4-({[({imino[(1-naphthylmethyl)amino]methyl}amino)carbonyl]amino}methyl)piperidine]",–,–,–,–,–,7.72,5.90,8.02,5.96,5.47
"CC(=O)Nc1ccc(NC(=O)NC(=N)NCc2cccc3ccccc23)cc1 [Example 1, N-(4-{[({Imino[(1-naphthylmethyl)amino]methyl}amino)carbonyl]amino}phenyl)acetamide]",–,–,–,–,–,7.89,5.75,9.00,6.66,5.60
"N=C(NCc1cccc2ccccc12)NC(=O)N1CCC(Cc2ccccc2)CC1 [Example 29, N-[(4-Benzyl-1-piperidinyl)carbonyl]-N′-(1-naphthylmethyl)guanidine]",–,–,–,–,–,7.80,< 5.60,6.77,5.57,< 5.00
"N=C(NCc1cccc2ccccc12)NC(=O)NCC1CCN(Cc2ccc3c(c2)OCO3)CC1 [Example 66, 1-(1,3-Benzodioxol-5-ylmethyl)-4-({[({imino[(1-naphthylmethyl)amino]methyl}amino)carbonyl]amino}methyl)piperidine]",–,–,–,–,–,7.51,5.80,8.38,6.37,5.43
"N=C(NCc1cccc2ccccc12)NC(=O)N1CCC2(CC1)C(=O)NCN2c1ccccc1 [Example 36, N-(1-Naphthylmethyl)-N′-[(4-oxo-1-phenyl-1,3,8-triazaspiro[4.5]dec-8yl)carbonyl]guanidine]",–,–,–,–,–,7.96,6.47,7.48,6.24,6.13
"CC(=O)NC(=N)NCc1cccc2ccccc12 [Example 3, N-Acetyl-N′-(1-naphthylmethyl)guanidine]",–,–,–,–,–,7.00,< 5.60,8.10,5.82,5.57
N=C(NCc1cccc2ccccc12)NC(=O)N[C@@H](Cc1ccc(O)cc1)C(N)=O [Example 35],–,–,–,–,–,8.29,6.20,9.04,< 5.40,6.34
"CNC(=O)NC(=N)NCc1cccc2ccccc12 [Example 54, 1-{[(1-Imino{[(methylamino)carbonyl]amino}methyl)amino]methyl}naphthalene]",–,–,–,–,–,7.89,< 5.60,8.02,5.61,5.61
"Cc1ccccc1CN1CCC(CNC(=O)NC(=N)NCc2cccc3ccccc23)CC1 [Example 65, 4-({[({Imino[(1-naphthylmethyl)amino]methyl}amino)carbonyl]amino}methyl)-1-(2-methylbenzyl)piperidine]",–,–,–,–,–,7.54,5.60,8.02,6.16,5.38
"CCOC(=O)N1CCN(C(=O)NC(=N)NCc2cccc3ccccc23)CC1 [Example 51, Ethyl 4-[({imino[(1-naphthylmethyl)amino]methyl}amino)carbonyl]-1-piperazine carboxylate]",–,–,–,–,–,7.82,< 5.60,7.74,< 5.40,< 5.00
"COc1ccccc1CN1CCC(CNC(=O)NC(=N)NCc2cccc3ccccc23)CC1 [Example 45, 4-({[({Imino[(1-naphthylmethyl)amino]methyl}amino)carbonyl]amino}methyl)-1-(2-methoxybenzyl)piperidine]",–,–,–,–,–,7.68,6.30,8.41,6.22,5.81
"CNC(=O)NC(=N)NCc1c(OC)cccc1OC [Example 85, 2-{[(Imino{[(methylamino)carbonyl]amino}methyl)amino]methyl}-1,3-dimethoxybenzene]",–,–,–,–,–,7.92,< 5.60,6.55,6.51,5.20
"COc1ccc(C(C)=O)cc1CN1CCC(CNC(=O)NC(=N)NCc2cccc3ccccc23)CC1 [Example 63, 1-(5-Acetyl-2-methoxybenzyl)4({[({imino[(1-naphthylmethyl)amino]methyl}amino)carbonyl]amino}methyl)piperidine]",–,–,–,–,–,7.41,5.75,8.74,6.47,5.52
"N=C(NCc1cccc2ccccc12)NC(=O)NC1CCN(Cc2ccccc2)CC1 [Example 6, 1-Benzyl-4-{[({imino[(1-naphthylmethyl)amino]methyl}amino)carbonyl]amino}piperidine]",–,–,–,–,–,7.17,5.98,7.89,6.11,5.06
"CN(C)C(=O)NC(=N)NCc1cccc2ccccc12 [Example 56, 1-({[{[(Dimethylamino)carbonyl]amino}(imino)methyl]amino}methyl)naphthalene]",–,–,–,–,–,7.03,< 5.60,7.77,6.15,< 5.00
"COc1ccccc1N1CCN(C(=O)NC(=N)NCc2cccc3ccccc23)CC1 [Example 21, N-{[4-(2-Methoxyphenyl)-1-piperazinyl]carbonyl}-N′-(1-naphthylmethyl)guanidine]",–,–,–,–,–,8.22,6.05,6.82,6.28,< 5.00
"CNC(=O)NC(=N)NCc1cccc(-c2ccccc2)c1 [Example 87, 3-{[(Imino{[(methylamino)carbonyl]amino}methyl)amino]methyl}-1,1′-biphenyl]",–,–,–,–,–,7.10,< 5.60,5.99,< 6.40,5.47
